Measurements taken from patent US20260085315A1, “POLYNUCLEOTIDE COMPOSITIONS AND METHODS FOR TREATMENT OF CANCER” (APTAH BIO, INC., priority 2023, published 2026).
Several values for one entry are separate records, joined by “and”; a condition that tells them apart may be missing. Equal values may be shown once. Entries after “also recorded” stand apart in the source; their conditions may differ. d = 2'-deoxy (DNA); m = 2'-O-methyl

What was measured:
[1] = test system: MAPT; test: MAPT expression by qPCR in SK-N-SH; assay type: cell-based; details: 0.5 μM; for reduction of MAPT expression: relative to Lipofectamine 3000 only
Protocol: FIG. 27A-27B illustrates MAPT expression and tau quantification obtained after 24, 48, 96 and 144 hours of incubation with ASMO1 (0.5 μM) in neuroblastoma cell line.
At all time points cells were rinsed once with PBS, before proceeding with RNA extraction using the RNeasy Plus Kit (Qiagen). RNA (0.1-1 μg) was converted to cDNA using the SuperScript IV First-Strand Synthesis System (Thermo Fisher), following manufacturer instructions. After RNA removal, 5-10 ng of cDNA were amplified by qPCR. The following Taqman probes (Thermo Fisher) were used: Total TAU (MAPT, Assay ID: Hs00902193_m1), GAPDH (GAPDH, Assay ID: Hs99999905_m1). Gene expression was analyzed using the Applied Biosystems QuantStudio™ 12K Flex Real-Time PCR System. Quantification of gene expression was performed using the comparative threshold cycle (2^-ΔΔCT) Livak method, relative to Lipofectamine 3000 only treated cells. Gene expression was normalized to the reference gene GAPDH.

[2] = test system: MCF-7 cell line; test: MTT cell viability assay (Example 3); assay type: cell-based, Human; details: 48 hours, 2% FBS
Protocol: MTT assay was carried out to assess the cell viability of MCF-7 cell line after treatment with ASMO APT20TTMG, and, therefore, infer the ASMO1 cytotoxicity. The tetrazolium salt reduction (MTT) method evaluates cell viability by assessing mitochondrial integrity. Viable cells are able to reduce MTT reagent, which is yellow and water-soluble, into an insoluble purple formazan product. Formazan quantification could be measured by a spectrophotometer absorbance at 560 nm. The quantity of formazan is directly proportional to the number of viable cells in the culture.
For this assay, MCF-7 cells were plated in 96-well plates at a density of 1×10^4 cells/well and cultured for 24 hours for adhesion and, subsequently incubated with eight concentrations (0.0078-1 μM) of APT20TTMG (prepared in medium with 2% FBS) for the period of 48 hours. Then, cells were washed with 150 μL/well of PBS and incubated with 100 μL/well of MTT solution prepared in culture medium, at a concentration of 0.5 mg/mL for 3 hours in the incubator. […] Finally, the absorbance of the samples was measured in a plate reader spectrophotometer (Multiskan Spectrum, Thermo Scientific, Waltham, MA, USA), at a wavelength of 560 nm. The absorbance of each sample was used to determine the cell viability after each treatment condition.

[3] = test system: PC-3 cell line; test: MTT cytotoxicity assay on human cancer cell panel (Example 2); assay type: cell-based; details: 24, 48, 72 hours; 0.03-30 μM; 1% FBS
Protocol: Cell lines were maintained in growth medium with 10% of Fetal Bovine Serum (FBS) until the time of the experiments. Cells were sub-cultured by trypsinization and splitting the cell suspension into fresh flasks and supplementing with fresh culture medium. To perform the assay, the cells were trypsinized, neutralized with complete medium (10% FBS), centrifuged, counted with assistance of a hemocytometer, and plated with the respective media with 10% FBS. Cell lines were plated at a density of 1×10^4 cells per well, other than the SH-SY5Y cell line which was plated at a density of 2.5×10^4. The preparation of the different experimental groups was done with 0.1% FBS (U87MG, MCF-7, SH-SY5Y and 786-O) and 1% FBS (PC-3). The untreated cells were used as negative control (medium only). After 24, 48, 72 and 96 hours of incubation, the effect of ASMO1 and controls on cytotoxicity of cells was determined by MTT assay.
Briefly, plates were taken out and 20 μl of 5 mg/ml of MTT 3-(4,5-dimethythiazol-2-yl)-2,5-diphenyl tetrazolium bromide solution was added to all the wells. […] The absorbance of each well was then read at 540 nm using Synergy HT microplate reader.
Cells were plated and treated with 7 different concentrations (0.03, 0.1, 0.3, 1, 3, 10 and 30 μM) of APT20TTMG with medium (1% FBS). MTT assay was performed in 3 distinct times and graphs are represented as absorbance (540 nm). […]

[4] = test system: Human Glioblastoma Cancer (U-87MG) xenograft; test: Histopathology of tumor samples with scoring; assay type: in vivo, athymic nude mice; set-up: key to Score: Grade: 1: I; 2: II; 3: III; 4: IV; key to Score: Connective tissue stroma: 1: Minimal Fibrosis; 2: Mild Fibrosis; 3: Moderate Fibrosis; 4: Prominent; key to Score: N:C ratio: 3: High; 2: Low to High; 1: Low; key to Score: Apoptosis / Score: Lipid content: 4: Minimal; 3: Mild; 2: Moderate; 1: Prominent
Excerpt: The fixed tissues were processed for routine paraffin embedding followed by sectioning (3-6 micron). The sections were stained with hematoxylin and eosin. The prepared slides were examined under microscope by the study pathologist to record histopathological findings in tumor samples, related to capsule formation, cell type, connective tissue stroma, apoptosis, necrosis, lipid content, nucleus-to-cytoplasmic (N:C) ratio, nuclei mitotic figures, tumor grade, and level of differentiation. Each histopathological finding and tumor volume were assigned a score ranging from 1 to 4 (Table 7). The sum of these scores for each sample was used to infer the tumor aggressiveness.

[5] = test system: U87-MG cell line; test: Mitochondrial membrane potential; assay type: cell-based, Human; details: 0.25 and 0.5 μM
[6] = individual animals, G3 APT20TTMG, G2 TMZ

## APT20TTMG: engineered polynucleotide ASMO1, 24 nt, SEQ ID NO: 3 gtccactaacctttcaggccagcg; targeting moieties 5′-GTCCA-3′ and 5′-CG-3′, U1 snRNP recruiting moiety (GTCCACTAACCTTTCAGGCCAGCG; sugars from the 5' end m5 d14 m5, all phosphorothioate, methylation of C and T or U not given here)
[1]; 24 hours
  MAPT expression: transient increase
[1]; 96 h
  reduction of MAPT expression: 82±1.2%
[1]; 144 h
  reduction of MAPT expression: 74±4.3%
[2]; 0.5 μM
  cell viability (MTT): 86.4±1.6%
[2]; 1 μM
  cell viability (MTT): 85±2.7%
[3]
  cytotoxic or cytostatic effect (MTT): does not exert a cytotoxic or cytostatic effect
[4]; G3 20 mg/kg i.v. vs G1 vehicle
  total score of histopathological findings and tumor volume: statistically lower scores than G1 group
[4]; G3 APT20TTMG 20 mg/kg i.v., G2 TMZ 5 mg/kg p.o.
  histopathological findings compared to G1 (vehicle control): less anaplastic features (lower grade) and cellular atypia, with fewer mitotic figures
[4]; individual animals
  Histopathological findings: Cell Type: Cell Type - Irregular/spindle type cells; also recorded: Cell Type - Polymorphic (i.e., Moderately differentiated
[4]; individual animals, G3
  Histopathological findings (whole sample): Only diffused necrotic area was observed.
  Score: Capsule: 1
[4]; individual animals, G3 APT20TTMG 20 mg/kg i.v. q3dx7, G2 TMZ 5 mg/kg p.o. qdx21
  Histopathological findings: Capsule: Capsule - Present; also recorded: Capsule - Absent
[4]; [6]
  Histopathological findings: Apoptosis: Apoptosis - Mild; also recorded: Apoptosis - Moderate
  Histopathological findings: Connective tissue stroma: Connective tissue stroma - Moderate Fibrosis; also recorded: Connective tissue stroma - Mild Fibrosis
  Histopathological findings: Grade: Grade- 2; also recorded: Grade- 1; also recorded: Grade- 3
  Histopathological findings: Lipid content: Lipid content - Moderate; also recorded: Lipid content - Minimal; also recorded: Lipid content - Mild
  Histopathological findings: Mitotic figures: Mitotic figures - Active (Few in number); also recorded: Mitotic figures - Active (Moderate in number); also recorded: Mitotic figures - Active (Large in number)
  Histopathological findings: N:C ratio: N:C ratio - Low to High (Intermediate)
  Histopathological findings: Necrosis: Necrosis - Prominent; also recorded: Necrosis - Moderate; also recorded: Necrosis - Mild
  Histopathological findings: Nuclei: Nuclei - Hyperchromatic
  Histopathological findings: level of differentiation: Moderately differentiated; also recorded: Well differentiated
  Score: Apoptosis: 3 (4×) and 2 (2×)
  Score: Connective tissue stroma: 3 (4×) and 2 (2×)
  Score: Grade: 2 (4×) and 1 and 3
  Score: Lipid content: 3 (3×) and 1 and 2 (2×)
  Score: N:C ratio: 1 (3×) and 2 (2×) and 3
  Score: Volume Tumor: 1 (<500) (2×) and 2 (500-1000) (3×) and 3 (1000-1500)
[5]
  mitochondrial membrane potential labeling: reducing the labeling
